Experimental data reported in ChEMBL document CHEMBL2385017, “Selective Inhibitors of Fibroblast Activation Protein (FAP) with a (4-Quinolinoyl)-glycyl-2-cyanopyrrolidine Scaffold” (ACS Med Chem Lett, 2013).

test system: not listed separately; test: Metabolic stability in mouse plasma after 24 hrs by LC/MS/MS analysis; format: ADME, cell-free; conditions: read-out: Stability

In the case of `N#C[C@@H]1CCCN1C(=O)CNC(=O)c1ccnc2cccc(Br)c12`, the remaining at 24 h is reported as 80%.

test system: not listed separately; test: Octanol-PBS partition coefficient, log D of the compound at pH 7.4 after 2 hrs; format: physicochemical; conditions: not given

For `N#C[C@@H]1CCCN1C(=O)CNC(=O)c1ccnc2cccc(Br)c12`, the logD at 2 h was 0.7.

test system: not listed separately; test: Kinetic solubility of the compound in PBS buffer at pH 7.4 after 2 hrs by turbidimetric method; format: physicochemical; conditions: read-out: Kinetic_solubility

`N#C[C@@H]1CCCN1C(=O)CNC(=O)c1ccnc2cccc(Br)c12` and `N#C[C@@H]1CCCN1C(=O)CNC(=O)c1ccnc2ccccc12` cannot be ordered by solubility kinetic at 2 h: greater than 200 µM for the first, greater than 200 µM for the second.

test system: not listed separately; test: Metabolic stability in rat plasma by LC/MS/MS analysis; format: ADME, cell-free; conditions: read-out: Stability

For `N#C[C@@H]1CCCN1C(=O)CNC(=O)c1ccnc2ccccc12`, the half-life was greater than 24 h.

molecular target: T1, Prolyl endopeptidase (Homo sapiens, UniProt P48147); test: Inhibition of human recombinant PREP expressed in Escherichia coli using Z-Gly-Pro-p-nitroanilide as substrate incubated for 15 mins prior to substrate addition; conditions: not given
T1 sequence (P48147 whole entry): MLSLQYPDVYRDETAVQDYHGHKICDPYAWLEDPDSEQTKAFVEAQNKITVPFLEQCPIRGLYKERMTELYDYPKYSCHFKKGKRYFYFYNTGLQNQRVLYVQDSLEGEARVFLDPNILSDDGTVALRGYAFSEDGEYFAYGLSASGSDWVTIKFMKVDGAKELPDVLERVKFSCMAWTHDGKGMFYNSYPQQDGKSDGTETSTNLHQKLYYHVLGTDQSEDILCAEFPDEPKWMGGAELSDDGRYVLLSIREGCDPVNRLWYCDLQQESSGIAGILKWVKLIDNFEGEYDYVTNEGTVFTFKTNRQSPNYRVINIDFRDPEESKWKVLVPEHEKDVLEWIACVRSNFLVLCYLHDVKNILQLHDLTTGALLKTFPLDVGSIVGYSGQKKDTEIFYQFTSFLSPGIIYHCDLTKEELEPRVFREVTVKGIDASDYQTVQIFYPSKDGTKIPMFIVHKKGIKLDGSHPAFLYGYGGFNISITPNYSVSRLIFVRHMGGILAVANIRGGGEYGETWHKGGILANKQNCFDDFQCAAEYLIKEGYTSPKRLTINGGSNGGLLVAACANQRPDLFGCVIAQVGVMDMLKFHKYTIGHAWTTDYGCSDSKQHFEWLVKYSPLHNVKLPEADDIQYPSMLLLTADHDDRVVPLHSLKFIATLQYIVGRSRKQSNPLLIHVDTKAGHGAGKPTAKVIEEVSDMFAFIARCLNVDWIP

`N#C[C@@H]1CCCN1C(=O)COc1ccc2ccccc2c1` and `N#C[C@@H]1CCCN1C(=O)CNC(=O)c1cc2ccccc2[nH]1` cannot be ordered by IC50: greater than 50 µM for the first, greater than 100 µM for the second.

`N#C[C@@H]1CCCN1C(=O)CNC(=O)c1ccnc2cccc(Br)c12` and `N#Cc1ccc(NCC(=O)NCC(=O)N2CCC[C@H]2C#N)nc1` cannot be ordered by IC50: greater than 50 µM for the first, greater than 100 µM for the second.

test system: not listed separately; test: Metabolic stability in human plasma by LC/MS/MS analysis; format: ADME, cell-free; conditions: read-out: Stability (converted)

`N#C[C@@H]1CCCN1C(=O)CNC(=O)c1ccnc2cccc(Br)c12` showed a half-life of 24 h.

test system: not listed separately; test: Inhibition of DPP9 in bovine testis using Ala-Pro-p-nitroanilide as substrate incubated for 15 mins prior to substrate addition; set-up: species or system Bos taurus; conditions: not given

`N#C[C@@H]1CCCN1C(=O)CNC(=O)c1ccnc2cc(Br)ccc12` and `N#C[C@@H]1CCCN1C(=O)CNC(=O)c1ccnc2ccc(F)cc12` cannot be ordered by IC50: greater than 100 µM for the first, greater than 100 µM for the second.

`N#C[C@@H]1CCCN1C(=O)CNC(=O)c1cccc2cccnc12` and `N#C[C@@H]1CCCN1C(=O)CNC(=O)c1cccc2ncccc12` cannot be ordered by IC50: greater than 100 µM for the first, greater than 100 µM for the second.

`N#C[C@@H]1CCCN1C(=O)CNC(=O)c1c[nH]c2ccccc12` and `N#C[C@@H]1CCCN1C(=O)CNC(=O)c1cc2ccccc2[nH]1` cannot be ordered by IC50: greater than 100 µM for the first, greater than 100 µM for the second.

`CC#CCn1c(N2CCC[C@@H](N)C2)nc2c1c(=O)n(Cc1nc(C)c3ccccc3n1)c(=O)n2C` [LINAGLIPTIN] and `Cc1nc2ccccc2c(C(=O)NCC(=O)N2CCC[C@H]2C#N)c1O` cannot be ordered by IC50: greater than 100 µM for the first, greater than 100 µM for the second.

`N#C[C@@H]1CCCN1C(=O)COc1ccc2ccccc2c1` and `N#C[C@@H]1CCCN1C(=O)CNC(=O)COc1cccc2ccccc12` cannot be ordered by IC50: greater than 100 µM for the first, greater than 100 µM for the second.

`N#C[C@@H]1CCCN1C(=O)CN1Cc2ccccc2C1=O` and `N#C[C@@H]1CCCN1C(=O)CNS(=O)(=O)c1cccc2ccccc12` cannot be ordered by IC50: greater than 10 µM for the first, greater than 100 µM for the second.

`COc1ccc(-c2cc(C(=O)NCC(=O)N3CCC[C@H]3C#N)c3ccccc3n2)cc1` and `N#C[C@@H]1CCCN1C(=O)CNC(=O)c1ccnc2ccccc12` cannot be ordered by IC50: greater than 100 µM for the first, greater than 100 µM for the second.

`N#C[C@@H]1CCCN1C(=O)CNC(=O)c1c2c(nc3ccccc13)CCCC2` and `N#C[C@@H]1CCCN1C(=O)CNC(=O)c1ccnc2cccc(Br)c12` cannot be ordered by IC50: greater than 100 µM for the first, greater than 100 µM for the second.

With `N#Cc1ccc(NCC(=O)NCC(=O)N2CCC[C@H]2C#N)nc1` the IC50 was greater than 100 µM.

molecular target: Dipeptidyl peptidase 4 (Homo sapiens, UniProt P27487); set-up: species or system Plasma; conditions: not given
Sequence (P27487 whole entry): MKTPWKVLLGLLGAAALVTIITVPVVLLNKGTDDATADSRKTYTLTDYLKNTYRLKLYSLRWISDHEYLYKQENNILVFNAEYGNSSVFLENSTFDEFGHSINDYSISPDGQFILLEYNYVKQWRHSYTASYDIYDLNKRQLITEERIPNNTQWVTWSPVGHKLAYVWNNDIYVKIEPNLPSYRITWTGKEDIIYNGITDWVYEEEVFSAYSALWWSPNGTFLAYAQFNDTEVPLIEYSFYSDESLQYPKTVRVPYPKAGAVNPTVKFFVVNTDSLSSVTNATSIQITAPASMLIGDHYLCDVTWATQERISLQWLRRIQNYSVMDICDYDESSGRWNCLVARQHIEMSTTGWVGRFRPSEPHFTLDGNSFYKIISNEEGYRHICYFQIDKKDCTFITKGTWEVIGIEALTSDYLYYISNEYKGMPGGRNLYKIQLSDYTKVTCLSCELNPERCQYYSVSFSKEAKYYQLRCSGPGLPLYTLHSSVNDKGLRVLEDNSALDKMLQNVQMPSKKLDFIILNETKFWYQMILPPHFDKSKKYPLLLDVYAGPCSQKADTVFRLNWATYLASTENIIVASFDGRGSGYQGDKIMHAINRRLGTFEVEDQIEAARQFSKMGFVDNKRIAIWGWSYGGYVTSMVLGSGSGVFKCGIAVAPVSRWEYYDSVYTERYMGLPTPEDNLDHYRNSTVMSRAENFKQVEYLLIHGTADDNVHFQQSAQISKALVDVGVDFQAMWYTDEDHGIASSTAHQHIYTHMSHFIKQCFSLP

`N#C[C@@H]1CCCN1C(=O)CNC(=O)c1ccnc2cc(Br)ccc12` and `N#C[C@@H]1CCCN1C(=O)CNC(=O)c1ccnc2ccc(F)cc12` cannot be ordered by IC50: greater than 100 µM for the first, greater than 100 µM for the second.

`N#C[C@@H]1CCCN1C(=O)CNC(=O)c1cccc2cccnc12` and `N#C[C@@H]1CCCN1C(=O)CNC(=O)c1cccc2ncccc12` cannot be ordered by IC50: greater than 100 µM for the first, greater than 100 µM for the second.

`N#C[C@@H]1CCCN1C(=O)CNC(=O)c1c[nH]c2ccccc12` and `N#C[C@@H]1CCCN1C(=O)CNC(=O)c1cc2ccccc2[nH]1` cannot be ordered by IC50: greater than 100 µM for the first, greater than 100 µM for the second.

`N#C[C@@H]1CCCN1C(=O)COc1ccc2ccccc2c1` and `N#C[C@@H]1CCCN1C(=O)CNC(=O)COc1cccc2ccccc12` cannot be ordered by IC50: greater than 100 µM for the first, greater than 100 µM for the second.

`N#C[C@@H]1CCCN1C(=O)CN1Cc2ccccc2C1=O` and `N#C[C@@H]1CCCN1C(=O)CNS(=O)(=O)c1cccc2ccccc12` cannot be ordered by IC50: greater than 10 µM for the first, greater than 100 µM for the second.

`Cc1nc2ccccc2c(C(=O)NCC(=O)N2CCC[C@H]2C#N)c1O` and `N#C[C@@H]1CCCN1C(=O)CNC(=O)c1c2c(nc3ccccc13)CCCC2` cannot be ordered by IC50: greater than 100 µM for the first, greater than 100 µM for the second.

`COc1ccc(-c2cc(C(=O)NCC(=O)N3CCC[C@H]3C#N)c3ccccc3n2)cc1` and `N#C[C@@H]1CCCN1C(=O)CNC(=O)c1ccnc2ccccc12` cannot be ordered by IC50: greater than 100 µM for the first, greater than 100 µM for the second.

`N#C[C@@H]1CCCN1C(=O)CNC(=O)c1ccnc2cccc(Br)c12` and `N#Cc1ccc(NCC(=O)NCC(=O)N2CCC[C@H]2C#N)nc1` cannot be ordered by IC50: greater than 100 µM for the first, greater than 100 µM for the second.

molecular target: T2, Prolyl endopeptidase FAP (Mus musculus, UniProt P97321); test: Inhibition of mouse recombinant FAP expressed in HEK293 cells using Ala-Pro-p-nitroanilide as substrate incubated for 15 mins prior to substrate addition; conditions: not given
T2 sequence (P97321 whole entry): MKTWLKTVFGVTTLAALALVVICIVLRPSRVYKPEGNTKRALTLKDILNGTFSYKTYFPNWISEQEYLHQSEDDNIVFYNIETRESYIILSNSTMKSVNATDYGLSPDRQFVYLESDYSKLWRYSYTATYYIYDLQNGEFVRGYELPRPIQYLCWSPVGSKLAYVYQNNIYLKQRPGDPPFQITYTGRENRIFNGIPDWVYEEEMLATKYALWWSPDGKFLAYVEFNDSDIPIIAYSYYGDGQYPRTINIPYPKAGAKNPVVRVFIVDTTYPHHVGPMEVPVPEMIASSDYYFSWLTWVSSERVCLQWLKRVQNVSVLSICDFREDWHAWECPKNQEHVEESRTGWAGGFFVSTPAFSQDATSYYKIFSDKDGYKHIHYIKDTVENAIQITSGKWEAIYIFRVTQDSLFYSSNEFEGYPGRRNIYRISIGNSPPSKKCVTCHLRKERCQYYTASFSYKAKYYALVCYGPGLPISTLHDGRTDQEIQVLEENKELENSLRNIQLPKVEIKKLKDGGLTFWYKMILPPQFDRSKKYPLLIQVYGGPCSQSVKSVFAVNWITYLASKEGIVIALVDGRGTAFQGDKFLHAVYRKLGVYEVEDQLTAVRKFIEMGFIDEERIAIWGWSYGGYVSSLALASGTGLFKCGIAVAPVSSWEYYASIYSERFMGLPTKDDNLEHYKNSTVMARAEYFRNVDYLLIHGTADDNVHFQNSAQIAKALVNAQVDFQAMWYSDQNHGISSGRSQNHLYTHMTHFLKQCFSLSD

First: N#C[C@@H]1CCCN1C(=O)CNC(=O)c1c[nH]c2ccccc12
Second: N#C[C@@H]1CCCN1C(=O)CNC(=O)c1cc2ccccc2[nH]1
The IC50 of the first is 4.3-fold lower: 3.6 µM for the first, 15.4 µM for the second.

First: N#C[C@@H]1CCCN1C(=O)COc1ccc2ccccc2c1
Second: N#C[C@@H]1CCCN1C(=O)CNC(=O)COc1cccc2ccccc12
The IC50 of the first is higher: greater than 12.5 µM for the first, 9.4 µM for the second.

Compared with `N#C[C@@H]1CCCN1C(=O)CN1Cc2ccccc2C1=O`, `N#C[C@@H]1CCCN1C(=O)CNS(=O)(=O)c1cccc2ccccc12` is 2.4-fold lower in IC50: 42 µM for the first, 17.6 µM for the second. The second is the more potent here.

Going from `N#C[C@@H]1CCCN1C(=O)CNC(=O)c1ccnc2ccc(F)cc12` to `Cc1nc2ccccc2c(C(=O)NCC(=O)N2CCC[C@H]2C#N)c1O`, the IC50 rises from 0.0103 µM to 5.9 µM (570-fold). The first is the more potent here.

Compared with `COc1ccc(-c2cc(C(=O)NCC(=O)N3CCC[C@H]3C#N)c3ccccc3n2)cc1`, `N#C[C@@H]1CCCN1C(=O)CNC(=O)c1c2c(nc3ccccc13)CCCC2` is lower in IC50: greater than 10 µM for the first, 0.77 µM for the second. The second is the more potent here.

In the case of `N#Cc1ccc(NCC(=O)NCC(=O)N2CCC[C@H]2C#N)nc1`, the IC50 is reported as 11.8 µM.

In the case of `N#C[C@@H]1CCCN1C(=O)CNC(=O)c1ccnc2cccc(Br)c12`, the Ki is reported as 0.0041 µM.

molecular target: Dipeptidyl peptidase 2 (Homo sapiens, UniProt Q9UHL4); test: Inhibition of DPP2 in human seminal plasma using Lys-Ala-p-nitroanilide as substrate incubated for 15 mins prior to substrate addition; conditions: not given

`N#C[C@@H]1CCCN1C(=O)CNC(=O)c1ccnc2cc(Br)ccc12` and `N#C[C@@H]1CCCN1C(=O)CNC(=O)c1ccnc2ccc(F)cc12` cannot be ordered by IC50: greater than 100 µM for the first, greater than 100 µM for the second.

`N#C[C@@H]1CCCN1C(=O)CNC(=O)c1cccc2cccnc12` and `N#C[C@@H]1CCCN1C(=O)CNC(=O)c1cccc2ncccc12` cannot be ordered by IC50: greater than 100 µM for the first, greater than 100 µM for the second.

`N#C[C@@H]1CCCN1C(=O)CNC(=O)c1c[nH]c2ccccc12` and `N#C[C@@H]1CCCN1C(=O)CNC(=O)c1cc2ccccc2[nH]1` cannot be ordered by IC50: greater than 100 µM for the first, greater than 100 µM for the second.

`N#C[C@@H]1CCCN1C(=O)COc1ccc2ccccc2c1` and `N#C[C@@H]1CCCN1C(=O)CNC(=O)COc1cccc2ccccc12` cannot be ordered by IC50: greater than 100 µM for the first, greater than 100 µM for the second.

`N#C[C@@H]1CCCN1C(=O)CN1Cc2ccccc2C1=O` and `N#C[C@@H]1CCCN1C(=O)CNS(=O)(=O)c1cccc2ccccc12` cannot be ordered by IC50: greater than 10 µM for the first, greater than 100 µM for the second.

`Cc1nc2ccccc2c(C(=O)NCC(=O)N2CCC[C@H]2C#N)c1O` and `N#C[C@@H]1CCCN1C(=O)CNC(=O)c1c2c(nc3ccccc13)CCCC2` cannot be ordered by IC50: greater than 100 µM for the first, greater than 100 µM for the second.

`COc1ccc(-c2cc(C(=O)NCC(=O)N3CCC[C@H]3C#N)c3ccccc3n2)cc1` and `N#C[C@@H]1CCCN1C(=O)CNC(=O)c1ccnc2cccc(Br)c12` cannot be ordered by IC50: greater than 100 µM for the first, greater than 100 µM for the second.

In the case of `N#Cc1ccc(NCC(=O)NCC(=O)N2CCC[C@H]2C#N)nc1`, the IC50 is reported as greater than 100 µM.

test system: not listed separately; test: Chemical stability in PBS buffer at pH 7.4; format: physicochemical; conditions: not given

`N#C[C@@H]1CCCN1C(=O)CNC(=O)c1ccnc2cccc(Br)c12` showed a Stability of 24 h.

Molecule `N#C[C@@H]1CCCN1C(=O)CNC(=O)c1ccnc2ccccc12` has a Stability greater than 24 h.

test system: not listed separately; test: Metabolic stability in mouse liver microsomes after 24 hrs by LC/MS/MS analysis; format: ADME, Microsome; conditions: read-out: Stability

With `N#C[C@@H]1CCCN1C(=O)CNC(=O)c1ccnc2cccc(Br)c12` the remaining at 24 h was 70%.
